Assay results from patent US20220193060A1, “Inhibition of IL-1 Induced Inflammation” (THIOLAB, LLC., priority 2019, published 2022).

System: wasp sting
Test: Case: topical CPDS cream for wasp sting
Type: in vivo, human
Settings: topical cream containing 2% CPDS by weight
Method: An individual was stung by a wasp on their hand. […] Application of CPDS cream was repeated after two hours and every 4 hours thereafter. The swelling and redness vanished after 24 hours.

## O=C(O)c1ccc(SSc2ccc(C(=O)O)cn2)nc1 [CPDS, 6,6′-dithiodinicotinic acid]
person
  burning and itching: immediate relief
  time until swelling and redness vanished: 24 h
